Usually IC50 stands for the concentration at which inhibition is half-maximal.

IC50 data for 17 compounds are collected here from ChEMBL document CHEMBL3875164, “Pyrazole-based potent inhibitors of GGT1: Synthesis, biological evaluation, and molecular docking studies” (Eur J Med Chem, 2016).

Assay [1] can be described thus: Inhibition of recombinant FT (unknown origin) using FPP as substrate preincubated for 5 mins followed by protein addition measured over 20 mins by fluorescence assay. The arrangement: species or system Homo sapiens.
A short description of assay [2]: Cytotoxicity against human MDA-MB-231 cells assessed as cell growth inhibition after 48 hrs by MTT assay method. The format is functional, cell-based. Particulars: MDA-MB-231, 48 h.

On to `CSCCc1c(-c2cccnc2)nn(-c2ccc(Cl)c(Cl)c2)c1OCCCNC(=O)[C@H](Cc1ccncc1)NS(C)(=O)=O`, for which the results for the 50% inhibitory concentration (IC50) in assay [1] and in assay [2] were over 100 µM and 26.5 µM, respectively.

Regarding `CSCCc1c(-c2cccnc2)nn(-c2ccc(Cl)c(Cl)c2)c1OCCCNC(=O)[C@H](Cc1ccc(F)cc1)NC(C)=O`, the values for the half-inhibitory concentration (IC50) in assay [1] and in assay [2] were over 100 µM and 13.2 µM, respectively.

For the compound `CSCCc1c(-c2cccnc2)nn(-c2ccc(Cl)c(Cl)c2)c1OCCCNC(=O)[C@H](Cc1cccnc1)NS(C)(=O)=O`, the IC50 in assay [1] was over 100 µM; in assay [2] it was over 50 µM.

As for `COc1ccc(C[C@H](NC(=O)OC(C)(C)C)C(=O)NCCCOc2c(CCSC)c(-c3cccnc3)nn2-c2ccc(Cl)c(Cl)c2)cc1`, the IC50 in assay [1] is over 100 µM; in assay [2] it was over 50 µM.

Take `CSCCc1c(-c2cccnc2)nn(-c2ccc(Cl)c(Cl)c2)c1OCCCC(=O)N[C@@H](Cc1ccncc1)C(N)=O`: the half-inhibitory concentration (IC50) is over 100 µM in assay [1] and over 50 µM in assay [2].

With `COC(=O)[C@H](CCSC)NC(=O)c1ccc(NC[C@@H](N)CS)cc1-c1ccccc1`, the IC50 in assay [1] came out at 1.1 µM.

As for `CSCCc1c(-c2cccnc2)nn(-c2ccc(Cl)c(Cl)c2)c1OCCCNC(=O)[C@H](Cc1cccnc1)NC(C)=O`, the 50% inhibitory concentration (IC50) in assay [1] is over 100 µM; in assay [2], 52.3 µM.

Consider `CSCCc1c(-c2cccnc2)nn(-c2ccc(Cl)c(Cl)c2)c1OCCCNC(=O)[C@H](Cc1ccccc1)NS(C)(=O)=O`, for which the half-inhibitory concentration (IC50) is over 100 µM in assay [1] and over 50 µM in assay [2].

For `CSCCc1c(-c2cccnc2)nn(-c2ccc(Cl)c(Cl)c2)c1OCCCC(=O)N[C@@H](Cc1ccccc1)C(N)=O`, the IC50 in assay [2] is 23 µM.

As for `CSCCc1c(-c2cccnc2)nn(-c2ccc(Cl)c(Cl)c2)c1OCCCC(=O)N[C@@H](Cc1cccnc1)C(N)=O`, the half-inhibitory concentration (IC50) in assay [1] is over 100 µM; in assay [2] it was 29.4 µM.

Turning to `COc1ccc(C[C@H](NC(C)=O)C(=O)NCCCOc2c(CCSC)c(-c3cccnc3)nn2-c2ccc(Cl)c(Cl)c2)cc1`, the results for the IC50 in assay [1] and in assay [2] were over 100 µM and 14.8 µM, respectively.

For `CSCCc1c(-c2cccnc2)nn(-c2ccc(Cl)c(Cl)c2)c1OCCCC(=O)N[C@@H](Cc1ccc(F)cc1)C(N)=O`, the IC50 is over 100 µM in assay [1] and 7.6 µM in assay [2].

For the compound `CSCCc1c(-c2cccnc2)nn(-c2ccc(Cl)c(Cl)c2)c1OCCCNC(=O)[C@H](Cc1ccncc1)NC(C)=O`, the concentration for half-maximal inhibition (IC50) is over 100 µM in assay [1] and 34.9 µM in assay [2].

With `COc1ccc(C[C@H](NC(=O)CCCOc2c(CCSC)c(-c3cccnc3)nn2-c2ccc(Cl)c(Cl)c2)C(N)=O)cc1`, the IC50 in assay [1] was over 100 µM; in assay [2], 33.2 µM.

Turning to `CSCCc1c(-c2cccnc2)nn(-c2ccc(Cl)c(Cl)c2)c1OCCCNC(=O)[C@H](Cc1ccc(F)cc1)NS(C)(=O)=O`, the IC50 in assay [1] was over 100 µM; in assay [2], over 50 µM.

In the case of `COc1ccc(C[C@H](NS(C)(=O)=O)C(=O)NCCCOc2c(CCSC)c(-c3cccnc3)nn2-c2ccc(Cl)c(Cl)c2)cc1`, the IC50 in assay [1] is over 100 µM; in assay [2] it was over 50 µM.

On to `CSCCc1c(-c2cccnc2)nn(-c2ccc(Cl)c(Cl)c2)c1OCCCNC(=O)[C@H](Cc1ccccc1)NC(C)=O`, for which the half-inhibitory concentration (IC50) was over 100 µM in assay [1] and 15.4 µM in assay [2].
